Test results from US9963441B2, “Histone demethylase inhibitors” (CELGENE QUANTICEL RESEARCH, INC., priority 2013, dated 2018).

Target: T1, JMJD2C (Homo sapiens, UniProt Q9H3R0)
T1 construct: purchased BPS Bioscience 50105
T1 sequence (Q9H3R0 2-372): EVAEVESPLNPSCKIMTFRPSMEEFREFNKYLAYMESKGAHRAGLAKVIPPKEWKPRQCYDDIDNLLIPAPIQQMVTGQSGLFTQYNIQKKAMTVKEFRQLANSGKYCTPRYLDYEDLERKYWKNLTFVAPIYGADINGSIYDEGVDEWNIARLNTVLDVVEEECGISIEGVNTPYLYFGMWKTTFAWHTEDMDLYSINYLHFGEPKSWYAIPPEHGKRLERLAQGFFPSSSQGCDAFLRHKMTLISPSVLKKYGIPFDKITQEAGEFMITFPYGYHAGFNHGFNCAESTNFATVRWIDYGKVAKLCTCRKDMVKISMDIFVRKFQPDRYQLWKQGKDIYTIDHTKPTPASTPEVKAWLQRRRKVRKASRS
Test: JMJD2C in vitro enzyme inhibition assay (TR-FRET)
Type: biochemical
Method: This assay determines the ability of a test compound to inhibit Jarid1A, Jarid1B, JMJD2C, and JMJD2A demethylase activity. […] Baculovirus expressed JMJD2C (GenBank Accession #BC143571, AA 2-372) was purchased from BPS Bioscience (Cat#50105).
The ability of test compounds to inhibit the activity of JMJD2C was determined in 384-well plate format under the following reaction conditions: 0.3 nM JMJD2C, 300 nM H3K9me3-biotin labeled peptide (Anaspec cat #64360), 2 μM alpha-ketoglutaric acid in assay buffer of 50 mM HEPES, pH7.3, 0.005% Brij35, 0.5 mM TCEP, 0.2 mg/ml BSA, 50 μM sodium L-ascorbate, and 2 μM ammonium iron(II) sulfate. Reaction product was determined quantitatively by TR-FRET after the addition of detection reagent Phycolink Streptavidin-allophycocyanin (Prozyme) and Europium-anti-di-methylated histone H3 lysine 9 (H3K9me2) antibody (PerkinElmer) in the presence of 5 mM EDTA in LANCE detection buffer (PerkinElmer) at a final concentration of 50 nM and 1 nM, respectively.
The assay reaction was initiated by the following: 2 μl of the mixture of 900 nM H3K9me3-biotin labeled peptide and 6 μM alpha-ketoglutaric acid with 2 μl of 11-point serial diluted inhibitor in 3% DMSO were added to each well of the plate, followed by the addition of 2 μl of 0.9 nM JMJD2C to initiate the reaction. […]

IC50: 1 to 10 µM
Compound: Cn1cnc(-c2cc(-c3nn[nH]n3)ccn2)c1-c1ccc(Cl)c(OCc2ccccc2)c1 [Example 161, 2-[5-(4-chloro-3-phenylmethoxyphenyl)-1-methylimidazol-4-yl]-4-(2H-tetrazol-5-yl)pyridine]
